A short description of data set [1]: Solubility of the purified product in solvents. It counts as physicochemical. As for the experimental part:
The broth is harvested and placed at 4° C. overnight. Remove the precipitate by centrifugation at 4000 rpm, 4° C., for 30 min. The supernatant is subject to macroporous resin, which is selected from: XAD-1600, SP850, or JD-1, by either static or dynamic mode. The resin is then eluted with double volume of purified water, 10%, 30%, 50%, 75%, and 100% of ethanol. Collect the fraction of the 50% elute and concentrate it under reduced pressure at 40° C. Dilute the concentrate by 10 fold with 30% acetonitrile and centrifuge at 12000 rpm for 10 min. Load 15-25 ml of the supernatant to a column for preparative chromatography (Biotage Si 25+M 1603-2, USA) at room temperature. Elute the column with 30% acetonitrile at flow rate of 3-5 ml/min, and collect the fraction of 200-400 ml. The collected elute is then concentrate under reduced pressure at 40° C., and the concentrate is subject to preparative HPLC by DIONEXP680 system or Agilent 1100 DAD system. The fraction containing target compound is concentrated and dried under reduced pressure at 40° C., and a purified product is obtained. […]

Data set [2] has as its target T1, aminopeptidase N (L5006-25UN, Sigma) (Sus scrofa, UniProt P15145).
T1 sequence (P15145 1-963): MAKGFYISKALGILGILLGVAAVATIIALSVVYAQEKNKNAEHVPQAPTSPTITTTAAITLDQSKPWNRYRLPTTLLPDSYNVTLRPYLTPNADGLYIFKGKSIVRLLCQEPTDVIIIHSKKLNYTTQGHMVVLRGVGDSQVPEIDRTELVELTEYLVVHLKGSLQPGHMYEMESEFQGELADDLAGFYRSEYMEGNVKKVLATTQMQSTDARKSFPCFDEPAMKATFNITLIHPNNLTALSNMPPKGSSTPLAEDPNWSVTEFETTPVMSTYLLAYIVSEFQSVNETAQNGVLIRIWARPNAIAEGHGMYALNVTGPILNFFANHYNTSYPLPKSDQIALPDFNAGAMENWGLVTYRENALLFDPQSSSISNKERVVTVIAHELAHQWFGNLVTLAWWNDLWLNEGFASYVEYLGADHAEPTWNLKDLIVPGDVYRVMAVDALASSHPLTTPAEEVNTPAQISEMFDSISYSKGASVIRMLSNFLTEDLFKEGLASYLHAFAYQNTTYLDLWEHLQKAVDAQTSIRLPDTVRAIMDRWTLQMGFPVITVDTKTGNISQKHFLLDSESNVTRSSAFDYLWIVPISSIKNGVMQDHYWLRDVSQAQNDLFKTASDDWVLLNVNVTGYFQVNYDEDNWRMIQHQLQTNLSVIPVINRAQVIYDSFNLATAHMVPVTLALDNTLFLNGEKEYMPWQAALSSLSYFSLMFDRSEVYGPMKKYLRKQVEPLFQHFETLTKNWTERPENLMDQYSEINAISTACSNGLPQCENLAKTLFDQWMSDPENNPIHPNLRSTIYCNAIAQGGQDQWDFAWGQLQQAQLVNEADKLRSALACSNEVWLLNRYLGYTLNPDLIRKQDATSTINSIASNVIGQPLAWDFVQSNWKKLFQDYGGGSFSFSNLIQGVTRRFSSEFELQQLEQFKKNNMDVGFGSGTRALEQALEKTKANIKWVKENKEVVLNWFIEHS
Procedure: Biotechnol., 1995, 5(1):36-40” is followed to analyze the bioactivity of 3-amino-2-hydroxy-4-phenylbutanoyl-valyl-isoleucine, taking bestatin, a typical APN inhibitor used in leukemia treatment, as positive control.
The procedure for the assay is as follows: apply 100 μl (1 mg/ml in a 0.1M Tris-HCl, pH 7.0) of substrate (L-leucine-p-nitroanilide) to a 96-well plate, mix with 20 µl (0.1M Tris-HCl, pH 7.0) of the compound to be assayed of different concentration (0.86, 1.71, 2.57, 4.29, 8.57 μg/ml). Incubate at 37° C. for 3 min, followed by addition of 20 μl (2 mU, 0.1M Tris-HCl, pH 7.0) aminopeptidase N (L5006-25UN, Sigma), incubate at 37° C. for 30 min. Read the absorbance at 405 nm.
The inhibition rate is presented as:
Inhibition rate=(A−B)/A*100%
wherein: • A is the absorbance tested without inhibitor in the system. • B is the absorbance detected in the system containing different concentration of the compound. Use 0.1M Tris-HCl (pH 7.0) to normalize the buffer.

The mark [3] stands for this setting: read-out: Inhibition Rate against APN (IR).

Broadly, the inhibition is the share of the control response that was lost under treatment.

Read-outs that look alike come from different tables or passages of the source.

On to `CC[C@H](C)[C@H](NC(=O)[C@@H](NC(=O)C(O)C(N)Cc1ccccc1)C(C)C)C(=O)O` (stereo partly drawn) [the compound], for which the solubility result in data set [1] (in chloroform) is “insoluble”; in data set [1] (in methanol, ethanol, water and acetonitrile), “soluble”. Besides, the “Inhibition Rate against APN (IR)” value in data set [2] (concentration 0.86 μg/ml) was 42.02%; in data set [2] (concentration 1.71 μg/ml) it was 51.40%; in data set [2] (concentration 2.57 μg/ml), 65.14%; in data set [2] (concentration 4.29 μg/ml), 70.79%; in data set [2] (concentration 8.57 μg/ml) it was 77.91%.

For the compound `CC(C)C[C@H](NC(=O)[C@@H](O)[C@H](N)Cc1ccccc1)C(=O)O` [positive control, bestatin, reference compound], in data set [2] (setting [3]), the inhibition at 0.86 µg/mL was 41.6%, the inhibition at 1.71 µg/mL was determined as 44.4%, the inhibition at 2.57 µg/mL was determined as 47.1% and the inhibition at 4.29 µg/mL amounted to 52.6%. Further, the inhibition at 8.57 µg/mL in data set [2] (setting [3]) stood at 66.5%.

These data come from patent US20140018303A1.
